# Key:
# [1] = test system: Escherichia coli; experiment: Genotoxicity (SOSIP) on Escherichia coli PQ37 (SOS induction potential data, as a measure of genotoxicity); format: functional
# [2] = test system: Salmonella typhimurium; experiment: Mutagenicity in Salmonella Typhimurium TA98 was determined; format: functional, Salmonella enterica subsp. enterica serovar Typhimurium
# [3] = test system: Salmonella typhimurium; experiment: Mutagenicity in Salmonella Typhimurium TA100 was determined; format: functional, Salmonella enterica subsp. enterica serovar Typhimurium
# [4] = test system: Salmonella typhimurium; experiment: Mutagenicity inSalmonella Typhimurium TA98 was determined; format: functional, Salmonella enterica subsp. enterica serovar Typhimurium
# [5] = test system: Salmonella typhimurium; experiment: Mutagenicity inSalmonella Typhimurium TA100 was determined; format: functional, Salmonella enterica subsp. enterica serovar Typhimurium
compound,measurement,setting,value
O=[N+]([O-])c1cc2cc3c(cc2o1)CCCC3,Log SOSIP,[1],2.25
same,Log TA98,[2],2.63
same,Log TA100,[3],3.11
COc1cc2oc([N+](=O)[O-])cc2c2ccccc12,Log SOSIP,[1],3.86
same,Log TA98,[2],3.28
same,Log TA100,[3],3.59
O=[N+]([O-])c1cc2cc3ccc4cccc5ccc(c2o1)c3c45,Log SOSIP,[1],3.72
Cc1c([N+](=O)[O-])oc2cc3c(cc12)CCCC3,Log SOSIP,[1],3.41
same,Log TA98,[2],3.32
same,Log TA100,[3],4.54
Cc1c([N+](=O)[O-])oc2c3c(ccc12)CCCC3,Log SOSIP,[1],3.28
same,Log TA98,[2],2.46
same,Log TA100,[3],4.38
O=[N+]([O-])c1cc2c(ccc3cc4ccccc4cc32)o1,Log SOSIP,[1],4.87
same,Log TA98,[2],3.95
CCCCc1c([N+](=O)[O-])oc2ccc3ccccc3c12,Log SOSIP,[1],4.28
COc1ccc2ccc3oc([N+](=O)[O-])cc3c2c1Br,Log SOSIP,[1],4.46
CC(=O)Cc1c([N+](=O)[O-])oc2ccc3ccccc3c12,Log SOSIP,[1],3.43
O=[N+]([O-])c1cc2c(cc3ccc4cccc5ccc2c3c45)o1,Log SOSIP,[1],5
COC(=O)Cc1ccc2c(ccc3oc([N+](=O)[O-])cc32)c1,Log SOSIP,[1],3.18
CCc1c([N+](=O)[O-])oc2ccc3ccccc3c12,Log SOSIP,[1],4.32
same,Log TA98,[2],4.18
CC(C)c1c([N+](=O)[O-])oc2ccc3ccccc3c12,Log SOSIP,[1],3.74
COc1ccc2ccc3oc([N+](=O)[O-])cc3c2c1,Log SOSIP,[1],4.25
same,Log TA98,[2],4.75
same,Log TA100,[3],5.58
CC(=O)c1ccc2c(ccc3oc([N+](=O)[O-])cc32)c1,Log SOSIP,[1],3.72
O=[N+]([O-])c1cc2ccc3cc4ccccc4cc3c2o1,Log SOSIP,[1],4.08
same,Log TA98,[2],3.88
O=[N+]([O-])c1cc2cc3ccccc3c(Br)c2o1,Log SOSIP,[1],3.04
same,Log TA98,[2],3.31
same,Log TA100,[3],2.67
COc1ccc2cc3c(ccc4oc([N+](=O)[O-])cc43)cc2c1,Log SOSIP,[1],4.77
same,Log TA98,[2],4.86
O=[N+]([O-])c1oc2ccc3ccccc3c2c1-c1ccccc1,Log SOSIP,[1],4.43
COc1ccc2ccc3oc([N+](=O)[O-])cc3c2c1OC,Log SOSIP,[1],4.2
Cc1c([N+](=O)[O-])oc2ccc3ccccc3c12,Log SOSIP,[1],4.91
same,Log TA98,[2],4.91
same,Log TA100,[3],6.71
Cc1c([N+](=O)[O-])oc2ccc3cc(Br)ccc3c12,Log SOSIP,[1],4.81
Cc1c([N+](=O)[O-])oc2ccccc12,Log SOSIP,[1],1.2
same,Log TA100,[3],3.7
COc1ccc2oc(-c3ccc([N+](=O)[O-])o3)cc2c1,Log SOSIP,[1],3.08
O=[N+]([O-])c1oc2ccc3ccccc3c2c1CCO,Log SOSIP,[1],3.78
same,Log TA98,[2],3.59
Cc1c([N+](=O)[O-])oc2ccc3c(c12)CCCC3,Log SOSIP,[1],2.11
same,Log TA98,[2],3.08
same,Log TA100,[3],3.78
O=[N+]([O-])c1cc2c(ccc3ccccc32)o1,Log SOSIP,[1],3.96
same,Log TA98,[4],3.33
same,Log TA100,[5],4.31
COc1ccc2c(ccc3oc([N+](=O)[O-])c(C)c32)c1,Log SOSIP,[1],4.7
O=[N+]([O-])c1cc2c(ccc3cc(Br)ccc32)o1,Log SOSIP,[1],4.64
same,Log TA98,[2],3.61
same,Log TA100,[3],4.16
CC(=O)Oc1ccc2c(ccc3oc([N+](=O)[O-])cc32)c1,Log SOSIP,[1],3
COc1cccc2cc3cc([N+](=O)[O-])oc3cc12,Log SOSIP,[1],2.96
same,Log TA98,[2],3.44
same,Log TA100,[3],3.07
Cc1c([N+](=O)[O-])oc2c1ccc1ccccc12,Log SOSIP,[1],4.34
O=[N+]([O-])c1cc2c(ccc3cc(O)ccc32)o1,Log SOSIP,[1],3.58
O=[N+]([O-])c1cc2ccc3c(c2o1)CCCC3,Log SOSIP,[1],1.93
same,Log TA98,[2],2.59
same,Log TA100,[3],2.95
COc1ccc2oc([N+](=O)[O-])cc2c1,Log SOSIP,[1],1.89
same,Log TA98,[2],1.74
same,Log TA100,[3],2.8
COc1ccc2c(C)c([N+](=O)[O-])oc2c1,Log SOSIP,[1],2.28
same,Log TA100,[3],3.54
O=[N+]([O-])c1cc2c3c(ccc2o1)CCCC3,Log SOSIP,[1],2.08
same,Log TA98,[2],2.11
same,Log TA100,[3],2.81
Cc1ccc2c(ccc3oc([N+](=O)[O-])cc32)c1,Log SOSIP,[1],3.95
Cc1c([N+](=O)[O-])oc2cc3ccccc3cc12,Log SOSIP,[1],3.34
O=[N+]([O-])c1cc2ccccc2o1,Log SOSIP,[1],1.53
same,Log TA98,[2],1.3
same,Log TA100,[3],1.54
COc1ccc2c(ccc3oc([N+](=O)[O-])cc32)c1Br,Log SOSIP,[1],3.43
COc1cc2cc([N+](=O)[O-])oc2c2ccccc12,Log SOSIP,[1],3.45
same,Log TA98,[2],3.25
same,Log TA100,[3],4.26
CCOC(=O)COc1ccc2c(ccc3oc([N+](=O)[O-])cc32)c1,Log SOSIP,[1],3.18
COc1cc2ccccc2c2cc([N+](=O)[O-])oc12,Log SOSIP,[1],4.04
same,Log TA98,[2],4.2
same,Log TA100,[3],4.66
COc1ccc2c(ccc3oc([N+](=O)[O-])cc32)c1,Log SOSIP,[1],4.23
same,Log TA98,[2],4.9
same,Log TA100,[3],5.31
O=[N+]([O-])c1cc2cc(Cl)c3ccccc3c2o1,Log SOSIP,[1],2.97
same,Log TA98,[2],3.82
same,Log TA100,[3],3.96
